pIC50: −log10 of the molar value. Where a SMILES comes first, the peptide text is derived from it.

Some targets named below: HLA B*1501 (Homo sapiens, UniProt P01889, A329T/A93T/A95T/C349S/D201E/D98Y/E187L/E204Q/E69M/E70A/K202T/N87E/Q94N/R155S/R180W/S121R/S35A/S48A/V306I/V36M/Y140S/Y91S); HLA A*3201 (Homo sapiens, UniProt P04439, A270S/D101S/D185E/E176V/E277Q/F133L/G103R/G107R/G231S/H175R/I121M/I218V/I322F/K168Q/L105A/L300P/L318F/M331R/P208A/P217A/Q94H/R106L/R138Q/S129P/T104I/T323A/T345S/V100E/V321M/V358M); HLA B*0801 (Homo sapiens, UniProt P01889, A93T/A95T/D138N/E176V/E187T/K202T/Q94N/R180D/S35A/V36M/Y33D/Y91F); HLA A*3001 (Homo sapiens, UniProt P04439, D140H/D185E/E176W/F33S/G80R/H175R/K168Q/R138E/R41S); HLA B*1503 (Homo sapiens, UniProt P01889, A329T/A93T/A95T/C349S/D201E/D98Y/E187L/E204Q/K202T/N87E/Q94N/R155S/R180L/S121R/S35A/V306I/V36M/Y140S/Y91S).

Holding throughout (assay): biochemical
What all share (format): binding

HLA A*3001, sequence (P04439 25-365 limits assumed, stated change not applied): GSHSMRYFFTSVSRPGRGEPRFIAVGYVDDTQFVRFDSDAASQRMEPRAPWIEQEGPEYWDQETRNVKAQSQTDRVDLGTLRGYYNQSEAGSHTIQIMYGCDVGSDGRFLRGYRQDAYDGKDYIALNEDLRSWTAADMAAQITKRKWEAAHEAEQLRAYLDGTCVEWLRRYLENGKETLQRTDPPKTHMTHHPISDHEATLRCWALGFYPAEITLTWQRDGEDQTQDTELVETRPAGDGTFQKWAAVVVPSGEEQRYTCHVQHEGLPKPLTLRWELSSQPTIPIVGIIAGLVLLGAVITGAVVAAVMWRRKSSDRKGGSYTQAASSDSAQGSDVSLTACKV

In the case of `CSCC[C@H](NC(=O)[C@@H](NC(=O)[C@@H](N)CCCCN)[C@@H](C)O)C(=O)N[C@@H](C)C(=O)N[C@H](C(=O)N[C@H](C(=O)N[C@@H](Cc1ccc(O)cc1)C(=O)N[C@@H](CCC(=O)O)C(=O)N[C@@H](CC(C)C)C(=O)O)[C@@H](C)O)C(C)C` [3102.0293] (H-KTMAVTYEL-OH), the pIC50 was 8.26 on HLA B*1501, 9.24 against HLA A*3201 and 7.72 against HLA B*0801.
In the case of `CC(C)C[C@H](NC(=O)[C@H](CCCCN)NC(=O)[C@H](CCCCN)NC(=O)[C@H](Cc1ccc(O)cc1)NC(=O)[C@H](CC(C)C)NC(=O)[C@@H](NC(=O)[C@@H](N)Cc1ccc(O)cc1)[C@@H](C)O)C(=O)N[C@@H](CO)C(=O)N[C@@H](Cc1ccccc1)C(=O)O` [3102.0333] (H-YTLYKKLSF-OH), the pIC50 was 7.85 against HLA B*1501, 6.71 on HLA A*3201, 7.80 against HLA B*0801 and 7.64 on HLA A*3001.
Turning to `CC[C@H](C)[C@H](NC(=O)[C@H](CO)NC(=O)[C@H](C)NC(=O)[C@@H](NC(=O)[C@@H](NC(=O)[C@H](CC(N)=O)NC(=O)[C@H](CCCNC(=N)N)NC(=O)[C@@H](NC(=O)[C@@H](N)CCCNC(=N)N)C(C)C)[C@@H](C)CC)[C@@H](C)CC)C(=O)O` [3102.0367] (H-RVRNIIASI-OH), the negative-log IC50 (pIC50) against HLA A*3201 is 9.00; against HLA B*0801, 7.66; on HLA A*3001 it was 10.00.
With `CC(C)C[C@H](NC(=O)[C@H](CC(C)C)NC(=O)[C@@H](N)CCCCN)C(=O)N[C@@H](CO)C(=O)N[C@@H](Cc1c[nH]cn1)C(=O)N[C@@H](Cc1ccccc1)C(=O)N[C@@H](Cc1ccc(O)cc1)C(=O)N1CCC[C@H]1C(=O)N[C@@H](C)C(=O)O` [3102.0665] (H-KLLSHFYPA-OH), the pIC50 at HLA B*1501 was 7.41; against HLA A*3201 it was 6.89; at HLA B*1503 it was 8.27; against HLA B*0801, 7.09.
With `CC[C@H](C)[C@H](NC(=O)[C@@H](N)CCCNC(=N)N)C(=O)N[C@@H](CCCNC(=N)N)C(=O)N[C@@H](CCCNC(=N)N)C(=O)N[C@@H](Cc1ccccc1)C(=O)N[C@@H](CCCNC(=N)N)C(=O)N[C@@H](CCCNC(=N)N)C(=O)N1CCC[C@H]1C(=O)N[C@@H](CCSC)C(=O)O` [3102.0681] (H-RIRRFRRPM-OH), the pIC50 was 7.44 at HLA B*1501, 7.52 against HLA B*1503, 8.05 against HLA B*0801 and 8.36 on HLA A*3001.
For the compound `CC[C@H](C)[C@H](NC(=O)[C@H](Cc1c[nH]cn1)NC(=O)[C@H](CS)NC(=O)[C@H](CC(C)C)NC(=O)[C@H](CC(C)C)NC(=O)[C@@H](N)CC(N)=O)C(=O)N[C@@H](Cc1ccc(O)cc1)C(=O)N[C@@H](CO)C(=O)N[C@@H](CC(C)C)C(=O)O` [3102.0692] (H-NLLCHIYSL-OH), the pIC50 was 6.63 against HLA A*3201 and 9.51 at HLA B*0801.
For `CSCC[C@H](NC(=O)[C@H](CC(C)C)NC(=O)[C@@H](N)CCSC)C(=O)N[C@@H](CC(N)=O)C(=O)N[C@@H](Cc1c[nH]cn1)C(=O)N[C@H](C(=O)N[C@@H](C)C(=O)N[C@@H](CC(N)=O)C(=O)N[C@@H](Cc1ccccc1)C(=O)O)C(C)C` [3102.0720] (H-MLMNHVANF-OH) the same measures were 8.08 and 8.48.
Taken in the same sequence, the figures for `CC[C@H](C)[C@H](NC(=O)[C@@H](NC(=O)[C@H](Cc1c[nH]cn1)NC(=O)[C@H](CCCNC(=N)N)NC(=O)[C@H](CC(C)C)NC(=O)[C@@H](NC(=O)[C@H](Cc1ccccc1)NC(=O)[C@H](CCSC)NC(=O)[C@@H](N)CO)[C@@H](C)O)[C@@H](C)CC)C(=O)O` [3102.0752] (H-SMFTLRHII-OH) were 7.08 and 8.74.
In the case of `CC[C@H](C)[C@H](NC(=O)[C@H](CCCNC(=N)N)NC(=O)[C@H](Cc1ccc(O)cc1)NC(=O)[C@H](CCSC)NC(=O)[C@H](CO)NC(=O)[C@@H](N)CCCNC(=N)N)C(=O)N1CCC[C@H]1C(=O)N1CCC[C@H]1C(=O)N[C@@H](Cc1ccccc1)C(=O)O` [3102.0766] (H-RSMYRIPPF-OH), the pIC50 on HLA A*3201 is 9.14; against HLA B*0801 it was 6.80.
For the compound `CC[C@H](C)[C@H](NC(=O)[C@@H](N)Cc1ccccc1)C(=O)N[C@@H](CCCNC(=N)N)C(=O)N[C@@H](Cc1ccc(O)cc1)C(=O)N[C@@H](CCCNC(=N)N)C(=O)N[C@@H](CCSC)C(=O)N[C@@H](Cc1c[nH]cn1)C(=O)N1CCC[C@H]1C(=O)N[C@@H](CCSC)C(=O)O` [3102.0768] (H-FIRYRMHPM-OH), the figures for the pIC50 on HLA B*1501, against HLA B*1503 and on HLA B*0801 were 8.92, 7.66 and 9.68, respectively.
As for `CC[C@H](C)[C@H](NC(=O)[C@H](CC(C)C)NC(=O)[C@@H](N)CC(N)=O)C(=O)N[C@H](C(=O)N[C@@H](CC(C)C)C(=O)N[C@@H](C)C(=O)N[C@H](C(=O)N[C@@H](CO)C(=O)N[C@@H](Cc1ccccc1)C(=O)O)C(C)C)[C@@H](C)O` [3102.0798] (H-NLITLAVSF-OH), the pIC50 was 7.09 against HLA B*1501, 7.82 on HLA B*1503 and 6.48 against HLA B*0801.
Taken in the same sequence, the figures for `CC(C)C[C@H](NC(=O)[C@H](CCC(=O)O)NC(=O)[C@H](CC(N)=O)NC(=O)[C@H](CCCNC(=N)N)NC(=O)[C@H](CC(=O)O)NC(=O)[C@H](CCCCN)NC(=O)[C@H](CC(C)C)NC(=O)[C@@H](N)CC(C)C)C(=O)N[C@@H](Cc1ccccc1)C(=O)O` [3102.0842] (H-LLKDRNELF-OH) were 8.74, 7.80 and 7.39.
In the case of `CC[C@H](C)[C@H](NC(=O)[C@H](CCCNC(=N)N)NC(=O)[C@H](Cc1c[nH]cn1)NC(=O)[C@H](CS)NC(=O)[C@@H](NC(=O)[C@@H](N)CCSC)C(C)C)C(=O)N[C@@H](CC(C)C)C(=O)N[C@H](C(=O)N[C@@H](Cc1ccc(O)cc1)C(=O)O)[C@@H](C)O` [3102.0849] (H-MVCHRILTY-OH), the pIC50 at HLA B*1501 is 7.15; against HLA B*1503, 7.55; on HLA B*0801 it was 6.66.
For `CSCC[C@H](NC(=O)[C@@H](N)CC(C)C)C(=O)N[C@@H](Cc1ccccc1)C(=O)N[C@@H](CCCCN)C(=O)N[C@@H](Cc1c[nH]cn1)C(=O)N[C@@H](CC(C)C)C(=O)N[C@@H](CC(C)C)C(=O)N[C@@H](Cc1c[nH]cn1)C(=O)N1CCC[C@H]1C(=O)O` [3102.0908] (H-LMFKHLLHP-OH) the same measures were 6.99, 7.59 and 9.00.
As to `CC(C)C[C@H](NC(=O)[C@@H]1CCCN1C(=O)[C@H](CO)NC(=O)[C@H](Cc1ccccc1)NC(=O)[C@H](Cc1ccc(O)cc1)NC(=O)[C@H](CCCCN)NC(=O)[C@H](C)NC(=O)[C@@H](NC(=O)[C@H](C)N)C(C)C)C(=O)O` [3102.0978] (H-AVAKYFSPL-OH), the results for the negative-log IC50 (pIC50) on HLA B*1501, at HLA A*3201 and on HLA B*0801 were 7.80, 6.55 and 6.72, respectively.
Take `CC[C@H](C)[C@H](NC(=O)[C@@H](NC(=O)[C@H](CO)NC(=O)[C@H](CO)NC(=O)[C@H](CO)NC(=O)[C@H](CCCCN)NC(=O)[C@H](C)NC(=O)[C@@H](NC(=O)[C@@H](N)CC(C)C)[C@@H](C)CC)C(C)C)C(=O)O` [3102.1021] (H-LIAKSSSVI-OH): the pIC50 against HLA B*1501 was 7.64; against HLA B*0801 it was 7.89; against HLA A*3001 it was 7.96.
Take `CC(C)C[C@H](NC(=O)[C@@H](N)CC(C)C)C(=O)N[C@@H](Cc1ccccc1)C(=O)N[C@@H](Cc1ccc(O)cc1)C(=O)N[C@H](C(=O)N[C@@H](CCCNC(=N)N)C(=O)N[C@@H](Cc1c[nH]cn1)C(=O)N[C@@H](CCCNC(=N)N)C(=O)N[C@@H](Cc1ccccc1)C(=O)O)[C@@H](C)O` [3102.1058] (H-LLFYTRHRF-OH): the negative-log IC50 (pIC50) on HLA B*1501 is 9.07; at HLA A*3201, 8.59; against HLA B*1503 it was 9.68; at HLA B*0801, 7.34.
For `CSCC[C@H](NC(=O)[C@@H](N)CO)C(=O)N[C@@H](CCCCN)C(=O)N[C@H](C(=O)N[C@H](C(=O)N[C@@H](Cc1ccccc1)C(=O)N[C@@H](CCC(N)=O)C(=O)N[C@H](C(=O)N[C@@H](Cc1ccccc1)C(=O)O)C(C)C)C(C)C)[C@@H](C)O` [3102.1083] (H-SMKTVFQVF-OH), the pIC50 was 8.80 against HLA B*1501, 8.42 against HLA B*1503 and 6.75 on HLA B*0801.
Regarding `CC[C@H](C)[C@H](NC(=O)[C@H](Cc1ccccc1)NC(=O)[C@H](CCCNC(=N)N)NC(=O)[C@H](CCC(=O)O)NC(=O)[C@@H](NC(=O)[C@H](CCSC)NC(=O)[C@@H](N)Cc1ccc(O)cc1)[C@@H](C)CC)C(=O)N[C@@H](CO)C(=O)N[C@@H](Cc1ccccc1)C(=O)O` [3102.1085] (H-YMIERFISF-OH), the pIC50 was 9.96 at HLA B*1501, 10.34 against HLA B*1503 and 9.46 against HLA B*0801.
On to `CC[C@H](C)[C@H](NC(=O)[C@@H](NC(=O)[C@H](CC(N)=O)NC(=O)[C@H](CCSC)NC(=O)[C@@H](N)CO)[C@@H](C)O)C(=O)N[C@@H](CCCCN)C(=O)N[C@@H](CCC(N)=O)C(=O)N[C@@H](CO)C(=O)N[C@@H](Cc1ccccc1)C(=O)O` [3102.1144] (H-SMNTIKQSF-OH), for which the pIC50 is 6.53 against HLA A*3201, 7.77 against HLA B*1503 and 6.35 against HLA B*0801.
Regarding `CSCC[C@H](NC(=O)[C@@H](NC(=O)[C@H](CO)NC(=O)CNC(=O)[C@H](CC(=O)O)NC(=O)[C@@H](NC(=O)[C@@H](NC(=O)[C@H](CCSC)NC(=O)[C@@H](N)Cc1ccc(O)cc1)C(C)C)C(C)C)C(C)C)C(=O)O` [3102.1153] (H-YMVVDGSVM-OH), the pIC50 against HLA B*1501 is 8.60; against HLA B*1503 it was 9.00; at HLA B*0801, 6.41.

A word on the pIC50: it is −log10 of the IC50, conventionally taken in molar units.

Source of the values: publication PMC2248166, “Quantitative peptide binding motifs for 19 human and mouse MHC class I molecules derived using positional scanning combinatorial peptide libraries” (Immunome Research, 2008).
